Measurements published in ChEMBL document CHEMBL4425188, “Synthesis and immunostimulatory activity of substituted TLR7 agonists” (Bioorg Med Chem Lett, 2016).
Active and inactive are the calls of the source. The rule behind the calls is not given here.

Assays:
HEK293 = experiment: Induction of SEAP reporter gene expression in TLR-deficient HEK293 cells at 5 to 1000 ng/ml; assay type: functional, cell-based; conditions: Homo sapiens
[1] = molecular target: T1, Toll-like receptor 8 (Homo sapiens) (UniProt Q9NR97); experiment: Agonist activity at human TLR8 expressed in HEK293 cells at 5 to 1000 ng/ml by QUANTI-blue SEAP reporter gene assay; assay type: cell-based
T1 sequence (whole entry): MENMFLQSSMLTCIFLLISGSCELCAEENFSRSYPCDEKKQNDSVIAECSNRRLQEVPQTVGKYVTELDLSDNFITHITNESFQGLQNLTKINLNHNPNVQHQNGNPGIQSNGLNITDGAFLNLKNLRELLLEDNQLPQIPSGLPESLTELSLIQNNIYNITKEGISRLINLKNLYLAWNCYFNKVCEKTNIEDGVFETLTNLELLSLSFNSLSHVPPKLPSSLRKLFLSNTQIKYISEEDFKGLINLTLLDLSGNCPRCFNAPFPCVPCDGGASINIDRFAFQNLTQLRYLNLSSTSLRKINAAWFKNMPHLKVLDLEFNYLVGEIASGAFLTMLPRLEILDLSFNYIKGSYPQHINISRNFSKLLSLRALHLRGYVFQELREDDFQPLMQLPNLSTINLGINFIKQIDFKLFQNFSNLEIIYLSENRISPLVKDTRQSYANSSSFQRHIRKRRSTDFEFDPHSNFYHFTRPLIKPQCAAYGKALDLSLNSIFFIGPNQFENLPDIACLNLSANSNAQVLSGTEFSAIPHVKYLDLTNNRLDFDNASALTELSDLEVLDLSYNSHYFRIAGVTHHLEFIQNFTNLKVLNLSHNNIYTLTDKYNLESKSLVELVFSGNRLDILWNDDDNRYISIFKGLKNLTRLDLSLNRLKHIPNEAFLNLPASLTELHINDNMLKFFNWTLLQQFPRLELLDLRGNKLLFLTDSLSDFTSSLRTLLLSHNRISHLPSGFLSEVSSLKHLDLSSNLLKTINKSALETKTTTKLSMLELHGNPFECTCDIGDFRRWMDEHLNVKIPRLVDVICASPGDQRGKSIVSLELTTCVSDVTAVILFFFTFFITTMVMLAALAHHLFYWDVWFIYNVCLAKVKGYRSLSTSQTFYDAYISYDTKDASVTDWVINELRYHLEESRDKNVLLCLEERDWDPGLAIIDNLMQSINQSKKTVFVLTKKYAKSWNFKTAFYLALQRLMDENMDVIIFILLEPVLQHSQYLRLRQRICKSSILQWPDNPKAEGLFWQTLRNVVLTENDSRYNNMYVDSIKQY

[2] = molecular target: T2, Toll-like receptor 9 (Homo sapiens) (UniProt Q9NR96); experiment: Agonist activity at human TLR9 expressed in HEK293 cells at 5 to 1000 ng/ml by QUANTI-blue SEAP reporter gene assay; assay type: cell-based
T2 sequence (whole entry): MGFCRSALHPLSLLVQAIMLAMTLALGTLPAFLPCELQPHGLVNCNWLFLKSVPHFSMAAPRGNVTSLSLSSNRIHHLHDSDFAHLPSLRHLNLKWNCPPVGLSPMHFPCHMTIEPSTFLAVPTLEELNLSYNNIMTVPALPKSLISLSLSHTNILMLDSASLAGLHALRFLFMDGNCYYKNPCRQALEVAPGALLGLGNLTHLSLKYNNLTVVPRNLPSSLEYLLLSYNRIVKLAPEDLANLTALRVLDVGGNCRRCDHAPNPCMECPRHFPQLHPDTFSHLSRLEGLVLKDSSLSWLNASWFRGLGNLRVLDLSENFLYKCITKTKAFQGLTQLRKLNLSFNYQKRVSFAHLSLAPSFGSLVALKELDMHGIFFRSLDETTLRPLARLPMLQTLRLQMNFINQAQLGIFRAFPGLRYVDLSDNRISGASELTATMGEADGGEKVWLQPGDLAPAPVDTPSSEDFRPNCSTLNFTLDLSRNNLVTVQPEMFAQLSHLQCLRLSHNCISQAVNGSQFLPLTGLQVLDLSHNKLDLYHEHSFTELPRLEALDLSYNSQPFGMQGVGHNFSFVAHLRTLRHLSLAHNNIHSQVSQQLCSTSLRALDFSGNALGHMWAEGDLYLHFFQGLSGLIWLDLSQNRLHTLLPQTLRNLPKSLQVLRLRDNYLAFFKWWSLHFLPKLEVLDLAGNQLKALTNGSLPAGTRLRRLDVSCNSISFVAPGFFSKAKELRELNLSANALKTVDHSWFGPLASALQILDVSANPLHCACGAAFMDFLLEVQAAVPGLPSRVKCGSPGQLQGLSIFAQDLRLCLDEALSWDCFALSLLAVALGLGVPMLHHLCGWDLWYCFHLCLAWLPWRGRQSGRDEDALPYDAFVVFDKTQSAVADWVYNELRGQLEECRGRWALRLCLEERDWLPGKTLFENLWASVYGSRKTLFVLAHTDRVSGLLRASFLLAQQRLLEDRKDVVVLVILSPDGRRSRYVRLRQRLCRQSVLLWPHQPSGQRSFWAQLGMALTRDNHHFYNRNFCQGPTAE

[3] = molecular target: T3, Toll-like receptor 7 (Homo sapiens) (UniProt Q9NYK1); experiment: Agonist activity at human TLR7 expressed in HEK293 cells at 1 ng/ml by QUANTI-blue SEAP reporter gene assay; assay type: cell-based
T3 sequence (whole entry): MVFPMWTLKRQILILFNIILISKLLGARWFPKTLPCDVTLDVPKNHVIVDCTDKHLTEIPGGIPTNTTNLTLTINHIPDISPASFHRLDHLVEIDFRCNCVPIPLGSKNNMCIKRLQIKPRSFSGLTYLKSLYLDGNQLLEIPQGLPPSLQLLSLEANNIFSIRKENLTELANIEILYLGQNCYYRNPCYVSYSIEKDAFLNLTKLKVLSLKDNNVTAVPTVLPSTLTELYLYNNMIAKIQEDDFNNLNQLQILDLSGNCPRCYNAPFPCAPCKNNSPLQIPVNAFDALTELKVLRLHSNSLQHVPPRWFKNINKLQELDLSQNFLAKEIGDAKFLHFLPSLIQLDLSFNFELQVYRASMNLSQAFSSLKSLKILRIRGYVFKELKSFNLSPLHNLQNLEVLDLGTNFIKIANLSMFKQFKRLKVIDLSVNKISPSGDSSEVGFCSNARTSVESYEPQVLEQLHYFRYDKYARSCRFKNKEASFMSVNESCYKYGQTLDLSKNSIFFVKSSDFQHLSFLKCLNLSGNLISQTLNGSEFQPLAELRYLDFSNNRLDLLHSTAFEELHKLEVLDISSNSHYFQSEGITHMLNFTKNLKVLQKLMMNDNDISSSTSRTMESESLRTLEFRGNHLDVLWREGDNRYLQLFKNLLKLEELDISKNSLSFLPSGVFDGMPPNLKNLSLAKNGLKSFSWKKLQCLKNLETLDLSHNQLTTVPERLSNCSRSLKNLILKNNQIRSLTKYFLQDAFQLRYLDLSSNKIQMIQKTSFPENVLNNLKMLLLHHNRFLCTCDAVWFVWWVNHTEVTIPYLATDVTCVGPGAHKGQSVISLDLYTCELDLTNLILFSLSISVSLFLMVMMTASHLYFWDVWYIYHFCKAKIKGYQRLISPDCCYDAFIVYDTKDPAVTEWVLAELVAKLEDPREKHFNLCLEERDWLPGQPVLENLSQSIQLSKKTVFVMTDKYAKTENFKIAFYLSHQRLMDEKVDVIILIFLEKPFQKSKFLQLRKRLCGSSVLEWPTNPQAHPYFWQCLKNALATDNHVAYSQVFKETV

Homo sapiens = species: Homo sapiens; experiment: Immunostimulatory activity in CFSE-labeled human NK cells assessed as TLR7 agonist-induced cell proliferation at 2 to 200 nM after 6 days by FACS analysis; assay type: functional
[4] = molecular target: T3, Toll-like receptor 7 (Homo sapiens); experiment: Agonist activity at human TLR7 expressed in HEK293 cells at <= 50 ng/ml by QUANTI-blue SEAP reporter gene assay; assay type: cell-based
B cell = experiment: Immunostimulatory activity in CFSE-labeled human B cells assessed as TLR7 agonist-induced cell proliferation after 6 days by FACS analysis; assay type: functional, cell-based; conditions: 144 h
T-cell = experiment: Immunostimulatory activity in CFSE-labeled human T cells assessed as TLR7 agonist-induced cell proliferation at 2 to 200 nM after 6 days by FACS analysis; assay type: functional, cell-based

Row | Compound | Activity [1] | Activity [2] | Activity [3] | Activity [4] | Activity (HEK293) | Activity (Homo sapiens) | EC50 (B cell) [nM] | Activity (T-cell)
1 | CCCCOc1nc(N)c2nc(O)n(Cc3ccc(C(=O)O)cc3)c2n1 | inactive | inactive | – | Active | inactive | inactive | 480 | inactive
2 | CCCCOc1nc(N)c2nc(O)n(Cc3ccc(C#CCO)cc3)c2n1 | inactive | inactive | – | Active | inactive | inactive | 58.3 | inactive
3 | CCCCOc1nc(N)c2nc(O)n(Cc3ccc(CCCN)cc3)c2n1 | inactive | inactive | – | Active | inactive | – | – | –
4 | CCCCOc1nc(N)c2nc(O)n(Cc3ccc(C(=O)NCCN)cc3)c2n1 | inactive | inactive | – | Active | inactive | inactive | 52.4 | inactive
5 | CCCCOc1nc(N)c2nc(O)n(Cc3ccc(C(=O)NCCOCCOCCNC(=O)CCC(=O)N4Cc5ccccc5C#Cc5ccccc54)cc3)c2n1 | inactive | inactive | – | Active | inactive | – | – | –
6 | CCCCOc1nc(N)c2nc(O)n(Cc3ccc(C(=O)NCCOCCOCCN)cc3)c2n1 | inactive | inactive | – | Active | inactive | inactive | 26 | inactive
7 | CCCCOc1nc(N)c2nc(SCCCCSc3nc4c(N)nc(OCCCC)nc4n3Cc3ccccc3)n(Cc3ccccc3)c2n1 | inactive | inactive | inactive | – | inactive | – | – | –
8 | CCCCOc1nc(N)c2nc(O)n(Cc3ccc(C#CCN)cc3)c2n1 | inactive | inactive | – | Active | inactive | – | – | –

Second part, led by results:

Row | Activity [1] | Activity [2] | Activity [3] | Activity [4] | Compound | Activity (HEK293) | Activity (Homo sapiens) | EC50 (B cell) [nM] | Activity (T-cell)
9 | inactive | inactive | inactive | – | CCCCOc1nc(N)c2nc(OCc3ccccc3)n(Cc3ccccc3)c2n1 | inactive | – | – | –
10 | inactive | inactive | inactive | – | CCCCOc1nc(N)c2c(n1)n(Cc1ccccc1)c(=O)n2Cc1ccccc1 | inactive | – | – | –
11 | inactive | inactive | inactive | – | CCCCOc1nc(N)c2nc(SCc3ccc(C#N)cc3)n(Cc3ccccc3)c2n1 | inactive | – | – | –
12 | inactive | inactive | – | Active | CCCCOc1nc(N)c2nc(S)n(Cc3ccccc3)c2n1 | inactive | inactive | 2690 | inactive
13 | inactive | inactive | inactive | – | CCCCOc1nc(N)c2nc(SCC(=O)O)n(Cc3ccccc3)c2n1 | inactive | – | – | –
14 | inactive | inactive | inactive | – | CCCCOc1nc(N)c2nc(SCc3ccc(Br)cc3)n(Cc3ccccc3)c2n1 | inactive | – | – | –
15 | inactive | inactive | inactive | – | CCCCOc1nc(N)c2nc(SCC(=O)OC(C)(C)C)n(Cc3ccccc3)c2n1 | inactive | – | – | –
16 | inactive | inactive | – | Active | CCCCOc1nc(N)c2nc(O)n(Cc3ccc(I)cc3)c2n1 | inactive | inactive | 126 | inactive
17 | inactive | inactive | – | – | CCCCOc1nc(N)c2nc(NCC)n(Cc3ccccc3)c2n1 | inactive | – | – | –
